Measurements: patent publication US7179825B2, “Retinoic acid mimetic anilides” (Janssen Pharmaceutica N.V., priority 1997, dated 2007)

Experiments:
[1] = tested on: metabolism of retinoic acid in human breast cancer cells; test: Inhibition of retinoic acid (RA) metabolism (Example C.1); type: cell-based; conditions: MCF-7 human breast cancer cells, 3H-RA as substrate; concentration needed to reduce the amount of metabolites to 50% of the control
Method in brief: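 Test compound (in 1% DMSO) added at several concentrations to MCF-7 cell suspensions fed ³H-RA, after RA induction of metabolism one day earlier. Scintillation counting of the separated polar metabolite fraction; IC50 = concentration giving 50% of control metabolite level.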

Ovariectomized rats = test: Vaginal keratinization test on ovariectomized rats (Example C.2); type: in vivo; conditions: estradiol undecylate induced keratinization, per os once daily on days 1-3, active dose = 50% of rats show complete suppression
Method in brief: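 Value is the lowest oral dose (mg/kg) at which half of tested rats show complete suppression of estradiol undecylate-induced vaginal keratinization by histology. Ovariectomized rats received 100 μg/100 g estradiol undecylate s.c., then compound or PEG 200 vehicle p.o. daily for three days; sacrifice one day later.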

| Structure (SMILES) | IC50 [1] [nM] | LAD (lowest active dose) (Ovariectomized rats) [mg/kg] |
| --- | --- | --- |
| CC(Sc1ccccc1)C(c1ccc(NC(=O)Cc2ccc(Cl)cc2)cc1)n1ccnc1 (single isomer, unassigned) [Compound 369] | 82.2 | 10.00 |
| CCCCCC(C)C(c1ccc(NC(=O)Cc2ccc(OC)c(OC)c2)cc1)n1ccnc1 (single isomer, unassigned) [Compound 385] | 6.75 | >2.50 |
| COCC(C)C(c1ccc(NC(=O)Cc2ccc(OC)c(OC)c2)cc1)n1ccnc1 (single isomer, unassigned) [Compound 405] | 3.68 | 5.00 |
| COc1ccc(CC(=O)Nc2ccc(C(C(C)N3CCN(C)CC3)n3ccnc3)cc2)cc1OC.O (single isomer, unassigned) [Compound 412] | 3.99 | >2.50 |
| CCCN(C)C(C)C(c1ccc(NC(=O)Cc2ccc(OC)c(OC)c2)cc1)n1ccnc1 (single isomer, unassigned) [Compound 413] | 5.27 | 5.00 |
| C/C(=C\c1ccccc1)C(=O)Nc1ccc(C(C(C)C)n2ccnc2)cc1 (single isomer, unassigned) [Compound 458] | 3.22 | 5.00 |
| CC(=Cc1ccccc1)C(=O)Nc1ccc(C(C(C)C)n2ccnc2)cc1 (single isomer, unassigned) [Compound 459] | 17.7 | 20.00 |
| CC(=Cc1ccccc1)C(=O)Nc1ccc(C(C(C)Sc2ccccc2)n2ccnc2)cc1 (single isomer, unassigned) [Compound 483] | 19.8 | >5.00 |
| CC(=Cc1ccccc1)C(=O)Nc1ccc(C(C(C)c2ccccc2)n2ccnc2)cc1 (single isomer, unassigned) [Compound 489] | > 100 | 2.50 |
| C/C(=C\c1ccccc1)C(=O)Nc1ccc(C(C(C)c2ccccc2)n2ccnc2)cc1 (single isomer, unassigned) [Compound 490] | > 100 | 2.50 |
| CCCCCC(CC)C(c1ccc(NC(=O)C(C)=Cc2ccccc2)cc1)n1ccnc1 (single isomer, unassigned) [Compound 492] | 4.07 | >2.50 |
| CCC(C(c1ccc(NC(C)=O)cc1)n1ccnc1)N(C)C (single isomer, unassigned) [Compound 558] | 1.32 | >5.00 |
| CCC(C(c1ccc(NC(C)=O)cc1)n1cncn1)N(C)C (single isomer, unassigned) [Compound 645] | 8.02 | >5.00 |
| CCC(C(c1ccc(NC(=O)Cc2ccc(OC)c(OC)c2)cc1)n1cncn1)N(C)C (single isomer, unassigned) [Compound 646] | 3.07 | 5.00 |
| CCC(CC)C(c1ccc(NC(=O)Cc2ccc(C)c(OC)c2)cc1)n1cncn1 (single isomer, unassigned) [Compound 782] | 1.26 | 2.50 |
| CCC(CC)C(c1ccc(NC(=O)C(O)c2ccc(Cl)cc2)cc1)n1cncn1 (stereo not shown) [Compound 4] | 2.11 | 0.60 |
| CCC(CC)C(c1ccc(NC(=O)CCCc2ccc(OC)c(OC)c2)cc1)n1cncn1 (stereo not shown) [Compound 8] | 0.0937 | >2.50 |
| CCC(CC)C(c1ccc(NC(=O)Cc2ccc3nc(N)sc3c2)cc1)n1cncn1 (stereo not shown) [Compound 13] | 0.0357 | >2.50 |

| Structure (SMILES) | IC50 [1] [nM] | LAD (lowest active dose) (Ovariectomized rats) [mg/kg] |
| --- | --- | --- |
| CCC(CC)C(c1ccc(NC(=O)C2CCc3ccccc3O2)cc1)n1ccnc1 (stereo not shown) [Compound 29] | 8.12 | 5.00 |
| CCC(CC)C(c1ccc(NC(=O)C(O)c2ccc(OC)c(OC)c2)cc1)n1ccnc1 (stereo not shown) [Compound 56] | 0.0251 | >5.00 |
| CCOc1cc(CC(=O)Nc2ccc(C(C(CC)CC)n3ccnc3)cc2)ccc1OCc1ccccc1 (stereo not shown) [Compound 128] | 0.0181 | 5.00 |
| CCC(CC)C(c1ccc(NC(=O)Cc2ccc(O)cc2C)cc1)n1ccnc1 (stereo not shown) [Compound 129] | 0.0236 | 2.50 |
| CCC(CC)C(c1ccc(NC(=O)Cc2ccc(OCc3cccnc3)cc2)cc1)n1ccnc1 (stereo not shown) [Compound 130] | 0.0109 | 5.00 |
| CC(C)C(c1ccc(NC(=O)Cc2ccc(Cl)cc2)cc1)n1cncn1 (stereo not shown) [Compound 131] | 4.1 | 5.00 |
| CC(C)C(c1ccc(NC(=O)Cc2ccc(F)cc2)cc1)n1cncn1 (stereo not shown) [Compound 132] | 4.49 | 5.00 |
| CC(C)C(c1ccc(NC(=O)Cc2ccc(O)cc2)cc1)n1cncn1 (stereo not shown) [Compound 134] | 2.98 | 5.00 |
| CCOc1ccc(CC(=O)Nc2ccc(C(C(C)C)n3cncn3)cc2)cc1 (stereo not shown) [Compound 135] | 1.43 | 2.50 |
| COc1ccc(CC(=O)Nc2ccc(C(C(C)C)n3cncn3)cc2)cc1OC.O (stereo not shown) [Compound 136] | 4.83 | 5.00 |
| CC(C)C(c1ccc(NC(=O)Cc2cccc(O)c2)cc1)n1cncn1 (stereo not shown) [Compound 137] | 1.85 | >5.00 |
| COc1cc(CC(=O)Nc2ccc(C(C(C)C)n3ccnc3)cc2)cc(OC)c1OC (stereo not shown) [Compound 139] | 1.75 | 10.00 |
| CC(C)C(c1ccc(NC(=O)Cc2ccc(Cl)cc2Cl)cc1)n1ccnc1 (stereo not shown) [Compound 141] | 1.31 | >10.00 |
| COc1cc(CC(=O)Nc2ccc(C(C(C)C)n3ccnc3)cc2)ccc1O (stereo not shown) [Compound 142] | 31.1 | 5.00 |
| CC(C)C(c1ccc(NC(=O)Cc2ccc(Cl)c(Cl)c2)cc1)n1ccnc1 (stereo not shown) [Compound 143] | 4.08 | 10.00 |
| CC(C)C(c1ccc(NC(=O)Cc2ccc(N)c(I)c2)cc1)n1ccnc1 (stereo not shown) [Compound 148] | 1.86 | >5.00 |
| CC(C)C(c1ccc(NC(=O)Cc2ccc(N)cc2)cc1)n1ccnc1 (stereo not shown) [Compound 152] | 5.18 | >5.00 |

Now from value to molecule, other results behind:

| IC50 [1] [nM] | Structure (SMILES) | LAD (lowest active dose) (Ovariectomized rats) [mg/kg] |
| --- | --- | --- |
| 83.4 | CC(Oc1ccccc1)C(c1ccc(NC(=O)Cc2ccc(Cl)cc2)cc1)n1ccnc1 (single isomer, unassigned) [Compound 370] | >10.00 |
| < 0.1 | CC(Sc1ccccc1)C(c1ccc(NC(=O)Cc2ccc(Cl)cc2)cc1)n1ccnc1 (single isomer, unassigned) [Compound 376] | 2.50 |
| 0.729 | CCN(CC)C(C)C(c1ccc(NC(=O)Cc2ccc(OC)c(OC)c2)cc1)n1ccnc1 (single isomer, unassigned) [Compound 383] | >2.50 |
| 0.0567 | COc1ccc(CC(=O)Nc2ccc(C(C(C)CN3CCCCC3)n3ccnc3)cc2)cc1OC (single isomer, unassigned) [Compound 389] | >2.50 |
| 0.955 | CCC(C(c1ccc(NC(=O)Cc2ccc(OC)c(OC)c2)cc1)n1ccnc1)N(C)C (single isomer, unassigned) [Compound 393] | 5.00 |
| 0.367 | CCN(C)C(C)C(c1ccc(NC(=O)Cc2ccc(OC)c(OC)c2)cc1)n1ccnc1 (single isomer, unassigned) [Compound 416] | >5.00 |
| 1.95 | CCCC(C)C(c1ccc(NC(=O)/C(C)=C/c2ccccc2)cc1)n1ccnc1 (single isomer, unassigned) [Compound 482] | 10.00 |
| 3.43 | CC(=Cc1ccccc1)C(=O)Nc1ccc(C(C(C)Sc2ccccc2)n2ccnc2)cc1 (single isomer, unassigned) [Compound 484] | >5.00 |
| 7.32 | CCN(CC)C(C)C(c1ccc(NC(=O)Cc2ccc(OC)c(OC)c2)cc1)n1cncn1 (single isomer, unassigned) [Compound 649] | 5.00 |
| 39.8 | CCC(CC)C(c1ccc(NC(=O)Cc2ccc(C)c(OC)c2)cc1)n1cncn1 (single isomer, unassigned) [Compound 783] | 5.00 |
| 1.03 | CCC(CC)C(c1ccc(NC(=O)C2Oc3ccccc3O2)cc1)n1ccnc1 (stereo not shown) [Compound 34] | 2.50 |
| 1.98 | CCC(CC)C(c1ccc(NC(=O)Cc2ccc(-c3ccccc3)cc2)cc1)n1ccnc1 (stereo not shown) [Compound 41] | 2.50 |
| 7.44 | CCC(CC)C(c1ccc(NC(=O)C(SC)c2ccccc2)cc1)n1ccnc1 (stereo not shown) [Compound 50] | 2.50 |
| 0.0285 | CCC(CC)C(c1ccc(NC(=O)Cc2ccc(OCc3ccncc3)cc2)cc1)n1ccnc1 (stereo not shown) [Compound 127] | >2.50 |
| 4.56 | Cc1ccc(CC(=O)Nc2ccc(C(C(C)C)n3cncn3)cc2)cc1 (stereo not shown) [Compound 133] | >5.00 |
| 6.38 | COc1cc(CC(=O)Nc2ccc(C(C(C)C)n3cncn3)cc2)ccc1O (stereo not shown) [Compound 138] | >5.00 |
| 21.5 | COc1ccc(CC(=O)Nc2ccc(C(C(C)C)n3ccnc3)cc2)cc1OC (stereo not shown) [Compound 140] | 5.00 |
| 2.11 | CC(C)C(c1ccc(NC(=O)Cc2ccc([N+](=O)[O-])cc2)cc1)n1ccnc1 (stereo not shown) [Compound 151] | 5.00 |
